Drawing on US20230167149A1, “CD33 LIGANDS SUITABLE FOR INCORPORATION INTO CARRIERS” (GLYCOMIMETICS, INC., priority 2020, published 2023), this text covers IC50 for one molecule.

The experiment has as its target T1, CD33 (Homo sapiens, UniProt P20138).
T1 construct: purchased BioLegend 750106
The experiment is described as follows: CD33 competitive binding assay. The conditions noted are these: immobilized CD33-Fc; competition with Neu5Acα2-3Galβ1-3GalNAc-PAA-biotin; TMB readout at 450 nm. As for the experimental part: The assay to screen for and characterize glycomimetic ligands of CD33 is a competitive binding assay, which allows the determination of IC50 values. CD33-Fc (BioLegend catalog item 750106) was immobilized in 96 well microtiter plates by incubation at 4° C. overnight. To reduce non-specific binding, bovine serum albumin was added to each well and incubated at room temperature for 2 hours. The plate was washed and serial dilutions of the test compounds were added to the wells in the presence of biotinylated polyacrylamide conjugated with Neu5Acα2-3Galβ1-3GalNAc-PAA-biotin (GlycoTech catalog item 01-088). After incubation at room temperature for 2 hours and washing, streptavidin/horseradish peroxidase was added to each well and incubated at room temperature for 30 minutes followed by an additional wash.
To determine the amount of glycopolymer bound to the immobilized CD33, the peroxidase substrate 3.3′.5.5′ tetramethylbenzidine (TMB) was added. After 5 minutes, the enzyme reaction was stopped by the addition of H3PO4 and the absorbance of light at a wavelength of 450 nm was determined. The concentration of test compound required to inhibit binding by 50% was determined and reported as the IC50 value.

T1 sequence (P20138 18-364): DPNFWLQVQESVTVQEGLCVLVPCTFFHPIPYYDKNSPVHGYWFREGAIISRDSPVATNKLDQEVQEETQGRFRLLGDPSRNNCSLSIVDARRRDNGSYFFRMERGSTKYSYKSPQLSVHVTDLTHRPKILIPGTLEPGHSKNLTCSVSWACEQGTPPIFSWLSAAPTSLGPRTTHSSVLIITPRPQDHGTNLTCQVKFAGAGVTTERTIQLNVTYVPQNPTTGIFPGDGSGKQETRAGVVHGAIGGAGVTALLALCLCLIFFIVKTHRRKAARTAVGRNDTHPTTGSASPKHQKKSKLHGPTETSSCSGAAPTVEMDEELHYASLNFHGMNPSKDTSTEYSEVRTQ

The term IC50 denotes the midpoint of a concentration-inhibition curve. A lower IC50 goes with greater potency. Molecule `CCCNC(=O)COC1C[C@](OCCCn2cc(-c3ccccc3)nn2)(C(=O)O)OC([C@H](O)[C@H](O)CNC(=O)c2cc(C)c(O)c(C)c2)[C@@H]1NC(=O)Cn1cc(C2CCCCC2)nn1` (stereo partly shown) [Compound 193] gave a 50% inhibitory concentration (IC50) of 40 µM.
